{
  "source": "paper PMC4285139",
  "about": "“Target discovery of acivicin in cancer cells elucidates its mechanism of growth inhibition” (Chemical Science, 2014)",
  "key": {"[1]": {"target": "T1, ALDH1A1 (Homo sapiens, UniProt P00352)", "T1 sequence (P00352 2-501)": "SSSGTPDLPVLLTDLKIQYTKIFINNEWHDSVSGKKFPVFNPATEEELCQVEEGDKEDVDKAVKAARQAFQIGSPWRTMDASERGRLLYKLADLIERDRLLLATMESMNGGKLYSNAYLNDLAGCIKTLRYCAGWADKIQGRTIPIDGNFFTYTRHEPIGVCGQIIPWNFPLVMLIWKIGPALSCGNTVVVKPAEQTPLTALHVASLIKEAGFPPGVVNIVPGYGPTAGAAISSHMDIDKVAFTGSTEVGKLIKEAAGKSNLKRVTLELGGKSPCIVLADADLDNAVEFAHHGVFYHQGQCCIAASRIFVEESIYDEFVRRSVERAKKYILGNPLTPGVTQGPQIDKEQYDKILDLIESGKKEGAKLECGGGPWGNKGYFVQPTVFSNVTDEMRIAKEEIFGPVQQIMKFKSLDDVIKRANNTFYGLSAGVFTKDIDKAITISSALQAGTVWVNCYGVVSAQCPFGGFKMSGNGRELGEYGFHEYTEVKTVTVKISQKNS", "assay": "enzyme inhibition assay with purified recombinant enzyme ([…] min pre-incubation)", "format": "biochemical"}, "[2]": {"target": "T2, ALDH4A1 (Homo sapiens, UniProt P30038)", "T2 sequence (P30038 25-563)": "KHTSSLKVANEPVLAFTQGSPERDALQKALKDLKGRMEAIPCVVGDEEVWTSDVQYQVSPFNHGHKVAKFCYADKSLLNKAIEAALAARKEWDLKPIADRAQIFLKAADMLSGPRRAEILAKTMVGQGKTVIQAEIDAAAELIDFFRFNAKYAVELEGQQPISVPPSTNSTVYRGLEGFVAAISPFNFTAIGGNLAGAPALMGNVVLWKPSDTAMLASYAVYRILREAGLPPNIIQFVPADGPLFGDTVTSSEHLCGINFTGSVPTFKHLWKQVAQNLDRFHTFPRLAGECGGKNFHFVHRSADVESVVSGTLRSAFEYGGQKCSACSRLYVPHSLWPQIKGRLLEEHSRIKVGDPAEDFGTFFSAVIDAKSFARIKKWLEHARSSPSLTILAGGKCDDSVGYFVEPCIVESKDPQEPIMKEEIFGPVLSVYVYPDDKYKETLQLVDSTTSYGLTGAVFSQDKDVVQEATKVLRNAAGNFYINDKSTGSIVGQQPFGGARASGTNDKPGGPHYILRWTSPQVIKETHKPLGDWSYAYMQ", "assay": "pre-incubation of native enzyme blocks probe labelling (competitive ABPP)", "format": "cell-based"}, "[3]": {"target": "T2, ALDH4A1", "assay": "enzyme inhibition assay with purified recombinant enzyme ([…] min pre-incubation); also ABPP labelling, lost in the Cys348Ala mutant", "format": "biochemical"}, "[4]": {"target": "T2, ALDH4A1", "assay": "enzyme inhibition assay with purified recombinant enzyme ([…] min pre-incubation); also competitive ABPP labelling in HepG2 lysate and cells", "format": "biochemical"}},
  "data": [
    {"compound": "C#CCCCC(=O)OC[C@H]1CC(Br)=NO1", "note": "[ACVL1]", "values": [
      {"measurement": "IC50", "setting": "[1]", "value": 0.3, "unit": "µM"}
    ]},
    {"compound": "CCN(CC)C(=S)SSC(=S)N(CC)CC", "note": "[disulfiram]", "values": [
      {"measurement": "pre-incubation of native enzyme blocks probe labelling (competitive ABPP)", "setting": "[2]", "value": "pre-incubation of the native enzyme with the ALDH inhibitor disulfiram resulted in a lack of labeling"}
    ]},
    {"compound": "C#CCNC(=O)[C@@H](N)[C@@H]1CC(Cl)=NO1", "note": "[ACV2]", "values": [
      {"measurement": "IC50", "setting": "[1]", "value": 55, "unit": "µM"}
    ]},
    {"compound": "C#CCCCC(=O)N[C@H](C(=O)O)[C@@H]1CC(Cl)=NO1", "note": "[ACV1]", "values": [
      {"measurement": "IC50", "setting": "[3]", "value": 0.7, "unit": "µM"}
    ]},
    {"compound": "N[C@H](C(=O)O)[C@@H]1CC(Cl)=NO1", "note": "[ACV, Acivicin]", "values": [
      {"measurement": "IC50", "setting": "[4]", "value": 5.4, "unit": "µM"}
    ]}
  ]
}
